Experimental data: patent US8741915B2, “Dihydropyrimidin-2(1H)-one compounds as S-nitrosoglutathione reductase inhibitors” (N30 Pharmaceuticals, Inc., priority 2009, dated 2014)

The molecules below were run against GSNOR (Homo sapiens (Human), UniProt P11766) (assay: GSNOR assay (inhibition of GSNOR activity in vitro, change in 340 nm absorbance with GSNO/NADH)). Settings: GSNOR IC50, Table 1, racemates and separated enantiomers.
Chain of GSNOR (P11766 whole entry): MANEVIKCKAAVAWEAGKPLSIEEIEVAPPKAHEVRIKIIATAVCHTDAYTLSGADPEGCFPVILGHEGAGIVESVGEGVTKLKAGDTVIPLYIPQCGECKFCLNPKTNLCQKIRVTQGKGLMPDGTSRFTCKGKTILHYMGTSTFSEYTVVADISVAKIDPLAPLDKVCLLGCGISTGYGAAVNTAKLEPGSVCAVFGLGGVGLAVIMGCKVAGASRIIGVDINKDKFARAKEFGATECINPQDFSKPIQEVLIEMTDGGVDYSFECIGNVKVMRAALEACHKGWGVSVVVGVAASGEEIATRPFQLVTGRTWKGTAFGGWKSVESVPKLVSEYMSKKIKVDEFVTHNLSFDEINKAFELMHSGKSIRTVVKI

Row | IC50 [nM] | SMILES
1 | 13 | CCOc1cc([C@@H]2NC(=O)NC(c3cnn(C)c3)=C2c2ccsc2)cc(C(=O)O)c1O [Example 146, (S)-3-ethoxy-2-hydroxy-5-(6-(1-methyl-1H-pyrazol-4-yl)-2-oxo-5-(thiophen-3-yl)-1,2,3,4-tetrahydropyrimidin-4-yl)benzoic acid]
2 | 23 | Cn1cc(C2=C(c3ccsc3)[C@H](c3ccc(C(=O)O)c(O)c3)NC(=O)N2)cn1 [Example 169, (S)-2-hydroxy-4-(6-(1-methyl-1H-pyrazol-4-yl)-2-oxo-5-(thiophen-3-yl)-1,2,3,4-tetrahydropyrimidin-4-yl)benzoic acid]

Same assay, conditions: IC50, upper bound (about <)

Row | SMILES | IC50 [nM]
3 | COc1cc(C2NC(=O)NC(c3ccccc3)=C2c2ccccc2)cc([N+](=O)[O-])c1O (centres unmarked) [Example 9, 4-(4-hydroxy-3-methoxy-5-nitrophenyl)-5,6-diphenyl-3,4-dihydropyrimidin-2(1H)-one] | < 100
4 | CCOc1cc(C2NC(=O)NC(c3ccccc3)=C2c2ccccc2F)cc([N+](=O)[O-])c1O (centres unmarked) [Example 13, 4-(3-ethoxy-4-hydroxy-5-nitrophenyl)-5-(2-fluorophenyl)-6-phenyl-3,4-dihydropyrimidin-2(1H)-one] | < 100
5 | CCOc1cc(C2NC(=O)NC(c3ccccc3)=C2c2cccc(OC)c2)cc([N+](=O)[O-])c1O (centres unmarked) [Example 23, 4-(3-ethoxy-4-hydroxy-5-nitrophenyl)-5-(3-methoxyphenyl)-6-phenyl-3,4-dihydropyrimidin-2(1H)-one] | < 100
6 | CCOc1cc(C2NC(=O)NC(c3ccccc3)=C2c2ccccc2C)cc([N+](=O)[O-])c1O (centres unmarked) [Example 26, 4-(3-ethoxy-4-hydroxy-5-nitrophenyl)-6-phenyl-5-o-tolyl-3,4-dihydropyrimidin-2(1H)-one] | < 1000
7 | CCOc1cc(C2NC(=O)NC(c3ccccc3)=C2c2cccc(C#N)c2)cc([N+](=O)[O-])c1O (centres unmarked) [Example 29, 3-(4-(3-ethoxy-4-hydroxy-5-nitrophenyl)-2-oxo-6-phenyl-1,2,3,4-tetrahydropyrimidin-5-yl)benzonitrile] | < 100
8 | CCOc1cc(C2NC(=O)NC(c3cccc(C#N)c3)=C2c2ccccc2)cc([N+](=O)[O-])c1O (centres unmarked) [Example 53, 3-(6-(3-ethoxy-4-hydroxy-5-nitrophenyl)-2-oxo-5-phenyl-1,2,3,6-tetrahydropyrimidin-4-yl)benzonitrile] | < 100
9 | CCOc1cc(C2NC(=O)NC(c3ccc4c(c3)OCO4)=C2c2ccccc2)cc([N+](=O)[O-])c1O (centres unmarked) [Example 61, 6-(benzo[d][1,3]dioxol-5-yl)-4-(3-ethoxy-4-hydroxy-5-nitrophenyl)-5-phenyl-3,4-dihydropyrimidin-2(1H)-one] | < 100
10 | CCOc1cc(C2NC(=O)NC(c3ccc(C#N)cc3)=C2c2ccccc2)cc([N+](=O)[O-])c1O (centres unmarked) [Example 63, 4-(6-(3-ethoxy-4-hydroxy-5-nitrophenyl)-2-oxo-5-phenyl-1,2,3,6-tetrahydropyrimidin-4-yl)benzonitrile] | < 100
11 | CCOc1cc(C2NC(=O)NC(c3ccccc3)=C2c2ccccc2)cc(C#N)c1O (centres unmarked) [Example 69, 3-ethoxy-2-hydroxy-5-(2-oxo-5,6-diphenyl-1,2,3,4-tetrahydropyrimidin-4-yl)benzonitrile] | < 1000
12 | CCOc1cc(C2NC(=O)NC(c3ccncc3)=C2c2ccccc2)cc([N+](=O)[O-])c1O (centres unmarked) [Example 71, 4-(3-ethoxy-4-hydroxy-5-nitrophenyl)-5-phenyl-6-(pyridin-4-yl)-3,4-dihydropyrimidin-2(1H)-one] | < 100
13 | CCOc1cc(C2NC(=O)NC(c3ccc(NC(C)=O)cc3)=C2c2ccccc2)cc([N+](=O)[O-])c1O (centres unmarked) [Example 73, N-(4-(6-(3-ethoxy-4-hydroxy-5-nitrophenyl)-2-oxo-5-phenyl-1,2,3,6-tetrahydropyrimidin-4-yl)phenyl)acetamide] | < 100
14 | CCOc1cc(C2NC(=O)NC(c3cccc4ccccc34)=C2c2ccccc2)cc([N+](=O)[O-])c1O (centres unmarked) [Example 81, 4-(3-ethoxy-4-hydroxy-5-nitrophenyl)-6-(naphthalen-1-yl)-5-phenyl-3,4-dihydropyrimidin-2(1H)-one] | < 100
15 | CCOc1cc(C2NC(=O)NC(c3ccc(NC(=O)OC)cc3)=C2c2ccccc2)cc([N+](=O)[O-])c1O (centres unmarked) [Example 83, methyl 4-(6-(3-ethoxy-4-hydroxy-5-nitrophenyl)-2-oxo-5-phenyl-1,2,3,6-tetrahydropyrimidin-4-yl)phenylcarbamate] | < 100
16 | O=C1NC(c2ccccc2)=C(c2ccccc2)C(c2cccc(C(=O)O)c2)N1 (centres unmarked) [Example 93, 3-(2-oxo-5,6-diphenyl-1,2,3,4-tetrahydropyrimidin-4-yl)benzoic acid] | < 100000
17 | O=C1NC(c2ccccc2)=C(c2ccccc2)C(c2ccc(O)c([N+](=O)[O-])c2)N1 (centres unmarked) [Example 95, 4-(4-hydroxy-3-nitrophenyl)-5,6-diphenyl-3,4-dihydropyrimidin-2(1H)-one] | < 1000
18 | CCOc1cc(C2NC(=O)NC(c3ccco3)=C2c2ccccc2)cc([N+](=O)[O-])c1O (centres unmarked) [Example 111, 4-(3-ethoxy-4-hydroxy-5-nitrophenyl)-6-(furan-2-yl)-5-phenyl-3,4-dihydropyrimidin-2(1H)-one] | < 100

Next, values leading:

Row | IC50 [nM] | SMILES
19 | < 100 | CCOc1cc(C2NC(=O)NC(c3ccc(C(F)(F)F)cc3)=C2c2ccccc2)cc([N+](=O)[O-])c1O (centres unmarked) [Example 113, 4-(3-ethoxy-4-hydroxy-5-nitrophenyl)-5-phenyl-6-(4-(trifluoromethyl)phenyl)-3,4-dihydropyrimidin-2(1H)-one]
20 | < 100 | CCOc1cc([C@@H]2NC(=O)NC(c3cnn(C)c3)=C2c2ccsc2)cc(C(=O)O)c1O [Example 146, (S)-3-ethoxy-2-hydroxy-5-(6-(1-methyl-1H-pyrazol-4-yl)-2-oxo-5-(thiophen-3-yl)-1,2,3,4-tetrahydropyrimidin-4-yl)benzoic acid]
21 | < 100 | CCOc1cc(C2NC(=O)NC(c3ccccc3)=C2c2ccccc2)cc(O)c1C(=O)O (centres unmarked) [Example 161, 2-ethoxy-6-hydroxy-4-(2-oxo-5,6-diphenyl-1,2,3,4-tetrahydropyrimidin-4-yl)benzoic acid]
22 | < 100 | O=C1NC(c2ccccc2)=C(c2ccccc2)C(c2cc(O)c(C(=O)O)c(Cl)c2)N1 (centres unmarked) [Example 163, 2-chloro-6-hydroxy-4-(2-oxo-5,6-diphenyl-1,2,3,4-tetrahydropyrimidin-4-yl)benzoic acid]
23 | < 100 | COc1cc(C2NC(=O)NC(c3ccccc3)=C2c2ccccc2)cc(O)c1C(=O)O (centres unmarked) [Example 165, 2-hydroxy-6-methoxy-4-(2-oxo-5,6-diphenyl-1,2,3,4-tetrahydropyrimidin-4-yl)benzoic acid]
24 | < 100 | Cn1cc(C2=C(c3ccccc3)C(c3ccc(C(=O)O)c(O)c3)NC(=O)N2)cn1 (centres unmarked) [Example 167, 2-hydroxy-4-(6-(1-methyl-1H-pyrazol-4-yl)-2-oxo-5-phenyl-1,2,3,4-tetrahydropyrimidin-4-yl)benzoic acid]
25 | < 100 | Cn1cc(C2=C(c3ccsc3)[C@H](c3ccc(C(=O)O)c(O)c3)NC(=O)N2)cn1 [Example 169, (S)-2-hydroxy-4-(6-(1-methyl-1H-pyrazol-4-yl)-2-oxo-5-(thiophen-3-yl)-1,2,3,4-tetrahydropyrimidin-4-yl)benzoic acid]
26 | < 1000 | CN(C)CCOc1cc(C2NC(=O)NC(c3ccccc3)=C2c2ccccc2)cc([N+](=O)[O-])c1O (centres unmarked) [Example 170, 4-(3-(2-(dimethylamino)ethoxy)-4-hydroxy-5-nitrophenyl)-5,6-diphenyl-3,4-dihydropyrimidin-2(1H)-one]
27 | < 100 | CCOc1cc(C2NC(=O)NC(C3CCCC3)=C2c2ccccc2)cc([N+](=O)[O-])c1O (centres unmarked) [Example 172, 6-cyclopentyl-4-(3-ethoxy-4-hydroxy-5-nitrophenyl)-5-phenyl-3,4-dihydropyrimidin-2(1H)-one]
28 | < 100 | CCOc1cc(C2NC(=O)NC(C3CCCCC3)=C2c2ccsc2)cc([N+](=O)[O-])c1O (centres unmarked) [Example 174, 6-cyclohexyl-4-(3-ethoxy-4-hydroxy-5-nitrophenyl)-5-(thiophen-3-yl)-3,4-dihydropyrimidin-2(1H)-one]
29 | < 100 | CCOc1cc(C2NC(=O)NC(c3ccccc3)=C2C2CCCCC2)cc([N+](=O)[O-])c1O (centres unmarked) [Example 177, 5-cyclohexyl-4-(3-ethoxy-4-hydroxy-5-nitrophenyl)-6-phenyl-3,4-dihydropyrimidin-2(1H)-one]
